In patent US20090149482A1, “STEREOCHEMICALLY DEFINED DIPEPTIDE ESTERS OF ANTIVIRAL AGENTS FOR ENHANCED OCULAR TREATMENT” (priority 2001, published 2009):
Read-outs that look alike come from different tables or passages of the source.

What was measured:
[1] = for first order hydrolytic rate constant k: 37° C.
physchem = details: buffer, pH 5.6
in vitro [2] = details: human
in vitro [3] = details: human, Caco-2, pH 7.4
in vitro [4] = details: human; remark: listed apart in the source
in vitro [5] = details: male, New Zealand albino, rabbit, tissue homogenate
HSV-1 strain McKrae = assay: HSV-1 epithelial keratitis rabbit model, topical treatment, SLE scores; assay type: in vivo; details: 14 days post-inoculation, 1% topical 5 times per day
Excerpt: (§1) The rabbit eye is an excellent model to study acute HSV-1 epithelial keratitis. Also, spontaneous and induced ocular HSV-1 shedding and corneal epithelial disease in rabbits has been used as a model of human ocular HSV-1 reactivation and recurrence. HSV-1 strain McKrae was used in studies for epithelial keratitis. HSV-1 strain RE was used for studies of HSV stromal keratitis.
i) Epithelial Keratitis: A group of ten rabbits was used to study each compound. Both eyes of all rabbits were used. An aqueous vehicle (like a placebo) and one positive control were obtained using 1% TFT (Viroptic®). Each compound at 1% concentration (TFT=33 mM, Gly-Gly-ACV=26.6 mM, Val-Val-ACV=18.6 mM) were applied (50 μl) topically 5 times per day every two hours starting at 8:00 a.m. and ending at 4:00 p.m. The treatment began on the 3rd post-inoculation day and continued for 5 consecutive days. Slit-lamp examinations were performed once every day for 8 days and thereafter once every other day until lesions resolved.

HSV-1 strain RE = assay: HSV-1 stromal keratitis rabbit model, topical treatment, SLE scores; assay type: in vivo; details: 13 days post-inoculation, 1% topical
Excerpt: as §1
ii) Stromal Keratitis: The experiment is similar to the part (i) experiment as far as the treatment cycles for all experimental drugs (TFT and Val-Val-ACV) are concerned. The effect of Val-Val-ACV on stromal keratitis induced by intrastromal injection with a high (20 μl of a 1×10^7 pfu/ml stock) titer of HSV-1RE strain was compared to that of TFT. Each compound at 1% concentration (TFT=33 mM, Val-Val-ACV=18.6 mM) was applied topically. The same scoring as noted in Table 4 is used for stromal keratitis. Emphasis is placed on the stromal edema and visibility into the aqueous chamber and the visualization of the pupil and iris.
A group of ten rabbits were used to study each compound. Both eyes of all rabbits were treated. Three to four groups of 10 rabbits are used in one experiment. This includes vehicle control, TFT, and the newly synthesized antiviral Val-Val-ACV.

[6] = tested on: human fibroblast foreskin cells (HFF)
[7] = rabbits, i.v. infusion, aqueous humor
[8] = rat, in vivo, po
[9] = pH 1.2, * = no measurable degradation during 7 day experiment
[10] = pH 2.6, * = no measurable degradation during 7 day experiment

SMILES: CC(C)[C@H](N)C(=O)OCCOCn1cnc2c(=O)[nH]c(N)nc21 [Val-ACV, L-Valine-acyclovir]
- first order hydrolytic rate constant k [1, 9]: 1.22 k × 10^3 min^−1
- first order hydrolytic rate constant k [1, 10]: 0.41 k × 10^3 min^−1
- first order hydrolytic rate constant k ([1]; pH 4.2, * = no measurable degradation during 7 day experiment): 0.008 k × 10^3 min^−1
- first order hydrolytic rate constant k ([1]; pH 5.6, * = no measurable degradation during 7 day experiment): 0.16 k × 10^3 min^−1
- first order hydrolytic rate constant k ([1]; pH 7.4): 0.67 k × 10^3 min^−1
- first order hydrolytic rate constant k ([1]; pH 9.0): 1.63 k × 10^3 min^−1
- inhibition in transport in presence of Gly-Sar (Caco-2 monolayers): 47 % inhibition
- hydrolytic rate constant k (Aqueous Humor): 21.8 (±1.2) k × 10^3 min^−1 mg^−1 protein
- hydrolytic rate constant k (Cornea homogenate): 8.1 (±1.2) k × 10^3 min^−1 mg^−1 protein
- hydrolytic rate constant k (Iris-Ciliary Body homogenate): 283.1 (±19.7) k × 10^3 min^−1 mg^−1 protein
- hydrolytic rate constant k (Lens homogenate): 10.1 (±0.3) k × 10^3 min^−1 mg^−1 protein
- hydrolytic rate constant k (Vitreous Humor): 7.1 (±0.9) k × 10^3 min^−1 mg^−1 protein
- half-life (physchem): ~72 h
- CC50 (in vitro [2]; CC50 (concentration required to inhibit cell proliferation by 50%), HSV-1): > 277 µM
- CC50 (in vitro [2]; CC50, EBV column): > 138 µM
- CC50 (in vitro [2]; CC50, HCMV column): > 277 µM
- CC50 (in vitro [2]; CC50, HSV-2 column): > 277 µM
- CC50 (in vitro [2]; CC50, VZV column): > 100 µM
- half-life (in vitro [3]): 2.06 ± 0.138 h
- Papp (in vitro [4]; Caco-2, pH 6): 3.01 ± 0.21 ×10⁻⁶ cm/s
- Papp (in vitro [4]; Caco-2, pH 7.4): 5.67 ± 1.13 ×10⁻⁶ cm/s
- half-life (in vitro [5]; corneal half-life, corneal tissue): 1.42 h
- half-life (in vitro [5]; t1/2 of conversion to ACV, corneal tissue homogenate): ~1.42 h

SMILES: CC(C)C(N)C(=O)NC(C(=O)OCCOCn1cnc2c(=O)[nH]c(N)nc21)C(C)C (stereo not drawn) [Val-Val-ACV, Val-Valacyclovir]
- Concentration required to achieve an SLE Score of 0.3 (HSV-1 strain McKrae): 18.6 mM
- Concentration required to achieve an SLE Score of 0.2 (HSV-1 strain RE): 18.6 mM
- first order hydrolytic rate constant k [1, 9]: 0.0062 k × 10^3 min^−1
- first order hydrolytic rate constant k [1, 10]: 0.0051 k × 10^3 min^−1
- stability as an ophthalmic solution ([1]; pH 5.6, concluded from rate constants): stable for two years
- first order hydrolytic rate constant k ([1]; pH 7.4): 0.107 k × 10^3 min^−1
- first order hydrolytic rate constant k ([1]; pH 9.0): 0.24 k × 10^3 min^−1
- CC50 ([6]; EBV column): > 93.1 µM
- CC50 ([6]; HCMV column): > 186 µM
- CC50 ([6]; HSV-2 column): > 186 µM
- CC50 ([6]; VZV column): > 186 µM
- CC50 ([6]; read-out: CC50 (concentration required to inhibit cell proliferation by 50%), HSV-1): > 186 µM
- MRT(aqueous) [7]: *188.39 min
- t1/2 (rabbit, tissue homogenate): 1.4 h
- amino acid intermediate metabolite after oral administration [8]: no intact amino acid intermediate metabolite VACV could be detected
